From patent US20080096943A1, “Organic Compunds” (priority 2004, published 2008)

Molecular target: T1, human CCR-3 (Homo sapiens, UniProt P51677)
T1 construct: expressed in transfected cells; membranes used
T1 sequence (P51677 1-355): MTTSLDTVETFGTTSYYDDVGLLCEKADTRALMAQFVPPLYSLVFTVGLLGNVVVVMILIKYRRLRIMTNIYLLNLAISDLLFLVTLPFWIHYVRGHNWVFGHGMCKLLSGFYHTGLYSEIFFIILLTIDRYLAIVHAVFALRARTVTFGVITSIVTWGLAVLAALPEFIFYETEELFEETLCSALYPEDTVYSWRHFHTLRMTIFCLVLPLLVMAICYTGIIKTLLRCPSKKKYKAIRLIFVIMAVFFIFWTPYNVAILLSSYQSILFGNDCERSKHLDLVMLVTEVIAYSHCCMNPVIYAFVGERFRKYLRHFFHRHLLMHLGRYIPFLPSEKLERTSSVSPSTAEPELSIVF
Assay: [125I]-human eotaxin binding to CCR-3, SPA assay
Settings: inhibition of [125I]-human eotaxin binding; membranes of RBL-2H3 cells stably expressing CCR3; 4 hours at room temperature
Excerpt: Recombinant cells expressing human CCR-3 are captured by wheatgerm agglutinin (WGA) polyvinyltoluidene (PVT) SPA beads (available from Amersham), through a specific interaction between the WGA and carbohydrate residues of glycoproteins on the surface of the cells. [^125I]-human eotaxin (available from Amersham) binds specifically to CCR-3 receptors bringing the [^125I]-human eotaxin in close proximity to the SPA beads. Emitted â-particles from the [^125I]-human eotaxin excite, by its proximity, the fluorophore in the beads and produce light.
Preparation of Assay Buffer: 5.96 g HEPES and 7.0 g sodium chloride are dissolved in distilled water and 1 M aqueous CaCl2 (1 ml) and 1M aqueous MgCl2 (5 ml) are added. The pH is adjusted to 7.6 with NaOH and the solution made to a final volume of 1 l using distilled water. 5 g bovine serum albumin and 0.1 g sodium azide are then dissolved in the solution and the resulting buffer stored at 4° C. […]
Preparation of membranes: Confluent rat basophil leukaemia (RBL-2H3) cells stably expressing CCR3 are removed from tissue culture flasks using enzyme-free cell dissociation buffer and resuspended in phosphate-buffered saline. […] The resulting scintillations are counted using a Canberra Packard TOPCOUNT™ scintillator counter, each well being counted for 1 minute. […]

Compound	IC50
CN(CCCCNC(=O)Nc1ccc(F)c(F)c1)Cc1ccc(F)cc1 [Example 2, 1-(3,4-difluorophenyl)-3-{4-[(4-fluorobenzyl)methylamino]-butyl}-urea]	49 nM
Cc1noc(C)c1NC(=O)NCCCCN(C)Cc1ccc(F)cc1 [Example 1, 1-(3,5-Dimethyl-isoxazole-4-yl)-3-[4-[(4-fluorobenzyl)methylamino]-butyl]-urea]	1540 nM
